Source: patent US6694171B1, “X-ray imaging of tumors with dextran carrier of platinum compounds” (Yeda Research and Development, priority 1997, dated 2004)

Experiment: Interaction between CDDP and ADH or hydrazine by OPDA colour reaction (FIGS. 4A-4B)
Format: physicochemical
Settings: 6 μg CDDP, OPDA 4 mg/ml
Protocol: The absorbance at 703 nm was determined (FIG. 4A).

**Q.** Which “leveling-off ratio ligand:CDDP” value does the source give for `NNC(=O)CCCCC(=O)NN` [ADH, adipic acid dihydrazide] here?
**A.** Its value is 20.
